Experimental data reported in US5849751A, “Amides and sulphonamides of benzylamines having heterocyclic substituents” (Bayer Aktiengesellschaft, priority 1995, dated 1998).

test system: release of apoB-100-associated lipoproteins from liver cells (HepG2); assay: Inhibition of the release of apoB-100-associated lipoproteins (HepG2 cells, immunoassay); type: cell-based; details: Homo sapiens; HepG2 culture supernatant, anti-LDL immunoassay, light absorption at 450 nm vs solvent control
Method: 1. Inhibition of the release of apoB-100-associated lipoproteins
The test for detection of the inhibition of the release of apoB-100-associated lipoproteins from liver cells was carried out in vitro with cultured liver cells, preferably with cells of the human line HepG2. These cells are cultured under standard conditions in a medium for the culture of eukaryotic cells, preferably in RPMI 1640 with 10% foetal calf serum. HepG2 cells synthesize and secrete into the culture supernatant apoB-100-associated lipoprotein particles, which in principle are similar in structure to the VLDL and LDL particles to be found in plasma.
These particles can be detected with an immunoassay for human LDL. This immunoassay is carried out with antibodies which had been induced in the rabbit against human LDL under standard conditions. The anti-LDL antibodies (rab-anti-LDL- ab) were purified by affinity chromatography on an immunosorbent with human LDL. These purified rab-anti-LDL-ab are adsorbed onto the surface of a plastic. This adsorption is expediently carried out onto the plastic surface of microtitre plates with 96 wells, preferably on MaxiSorp plates. If apoB-100-associated particles are present in the supernatant of Hep-G2 cells, these can bind to the insolubilized rab-anti-LDL-ab, and an immune complex bonded to the plastic surface is formed. Non-bound proteins are removed by washing. The immune complex on the plastic surface is detected with monoclonal antibodies which have been induced against human LDL and purified under standard conditions. These antibodies were conjugated with the enzyme peroxidase. Peroxidase converts the colourless substrate TMB into a coloured product in the presence of H2 O2. After acidification of the reaction mixture with H2 SO4, the specific adsorption of light at 450 nm is determined, this being a measure of the amount of apoB-100-associated particles which have been secreted into the culture supernatant by the HepG2 cells.
The IC50 value indicates the concentration of substance at which the adsorption of light is inhibited by 50% compared with the control (solvent control without substance).

SMILES	IC50
Cc1cc(C)c2c3ccccc3n(Cc3ccc(C(N)C4CCCC4)cc3)c2n1 (racemic) [Example 1, 9-{4-[1-(R,S1-Amino-1-cyclopentyl-methyl]phenyl-methyl}-2,4-dimethyl-(α-carboline]	> 2 µM
Cc1cc(C)c2c3ccccc3n(Cc3ccc(C(NS(=O)(=O)Cc4ccccc4)C4CCCC4)cc3)c2n1 (stereo not drawn) [Example 3]	0.46 µM
Cc1cc(C)c2c3ccccc3n(Cc3ccc(C(NC(=O)Cc4ccccc4)C4CCCC4)cc3)c2n1 (stereo not drawn) [Example 4]	0.034 µM

Other lines, results leading:

IC50	SMILES
0.039 µM	Cc1cc(C)c2c3ccccc3n(Cc3ccc(C(NC(=O)C(O)c4ccccc4)C4CCCC4)cc3)c2n1 (racemic) [Example 18, 9-{4-[1-(R,S)-1-(2-(R,S)-2-Phenyl-2-hydroxy-acetyl)amino-1-cyclopentyl-methyl]phenyl-methyl}-2,4-dimethyl-α-carboline]
0.3 µM	Cc1cc(C)c2c3ccccc3n(Cc3ccc(C(NC(=O)C(=NO)c4ccccc4)C4CCCC4)cc3)c2n1 (racemic) [Example 24, 9-{4-[1-(R,S)-1-(2-(E,Z)-2-hydroxyimino-2-phenyl-acetyl)amino-1-cyclopentyl-methyl]phenyl-methyl}-2,4-dimethyl-α-carboline]
0.038 µM	COc1ccc(CC(=O)NC(c2ccc(Cn3c4ccccc4c4c(C)cc(C)nc43)cc2)C2CCCC2)cc1 (stereo not drawn) [Example 5]
